For the experiment, the target named is T1, mTOR (Homo sapiens, UniProt P42345).
T1 construct: FLAG; made in house
Nature of the experiment: In Vitro mTOR Kinase Assay (Echo), Test (a)(ii). It is filed as biochemical. Conditions: table of enzyme assay Test (a)(ii); read-out: Test (a)(ii) IC50. The method, boiled down:
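Enzyme: HEK293-expressed, FLAG-purified mTOR C-terminal fragment (aa 1362-2549). Rxn 2 h RT with biotinylated peptide, stopped with EDTA 50 mM/BSA/Tris pH 7.4. Detection: T389 phospho-antibody AlphaScreen, 680 nm excitation. IC50.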

Each structure is given as a SMILES string.

This is an account of results in patent US20090018134A1, “Compounds - 945” (AstraZeneca AB, priority 2007, published 2009).

T1 sequence (P42345 1362-2549): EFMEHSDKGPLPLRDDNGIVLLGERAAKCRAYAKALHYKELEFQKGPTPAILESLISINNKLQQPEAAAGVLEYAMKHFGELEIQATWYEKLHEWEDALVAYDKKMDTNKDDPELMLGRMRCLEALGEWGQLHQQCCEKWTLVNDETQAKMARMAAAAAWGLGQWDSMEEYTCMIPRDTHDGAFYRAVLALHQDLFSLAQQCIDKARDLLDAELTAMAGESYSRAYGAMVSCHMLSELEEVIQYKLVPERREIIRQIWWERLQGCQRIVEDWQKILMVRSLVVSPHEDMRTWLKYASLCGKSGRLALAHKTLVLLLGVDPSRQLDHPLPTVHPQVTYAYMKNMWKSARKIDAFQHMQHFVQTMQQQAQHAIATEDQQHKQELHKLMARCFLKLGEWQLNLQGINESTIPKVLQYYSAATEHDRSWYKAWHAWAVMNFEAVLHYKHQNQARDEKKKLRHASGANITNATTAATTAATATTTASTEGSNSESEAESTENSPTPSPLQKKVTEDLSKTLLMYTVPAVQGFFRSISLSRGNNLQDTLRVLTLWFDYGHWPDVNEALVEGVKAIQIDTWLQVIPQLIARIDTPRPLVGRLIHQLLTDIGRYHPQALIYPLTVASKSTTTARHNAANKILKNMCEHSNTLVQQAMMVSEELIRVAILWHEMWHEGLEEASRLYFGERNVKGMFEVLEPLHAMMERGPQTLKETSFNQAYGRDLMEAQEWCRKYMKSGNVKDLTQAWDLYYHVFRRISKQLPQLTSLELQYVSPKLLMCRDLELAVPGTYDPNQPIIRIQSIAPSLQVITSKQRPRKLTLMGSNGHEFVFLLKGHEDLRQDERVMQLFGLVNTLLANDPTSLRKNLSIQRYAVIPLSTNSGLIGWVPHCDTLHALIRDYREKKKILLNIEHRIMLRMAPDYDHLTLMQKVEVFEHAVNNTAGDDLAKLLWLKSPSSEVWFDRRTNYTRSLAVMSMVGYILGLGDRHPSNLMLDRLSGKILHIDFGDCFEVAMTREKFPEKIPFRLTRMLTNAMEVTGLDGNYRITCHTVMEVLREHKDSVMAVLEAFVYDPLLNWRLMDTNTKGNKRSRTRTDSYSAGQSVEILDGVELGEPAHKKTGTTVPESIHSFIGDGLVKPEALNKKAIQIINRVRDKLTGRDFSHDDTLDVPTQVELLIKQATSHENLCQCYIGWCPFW

For `C[C@H]1COCCN1c1cc(C2(S(=O)(=O)c3ccc(F)cc3F)CC2)nc(-c2ccc(NC(=O)Nc3cnn(C)c3)cc2)n1` [Example 57f, 1-[4-[4-[1-(2,4-difluorophenyl)sulfonylcyclopro-pyl]-6-[(3S)-3-methylmorpholin-4-yl]pyrimidin-2-yl]phenyl]-3-(1-methylpyrazol-4-yl)urea], the IC50 is 10.6 nM.

For the molecule `C[C@H]1COCCN1c1cc(C2(S(=O)(=O)c3ccc(F)cc3F)CC2)nc(-c2ccc(NC(=O)NCC3(O)CC3)cc2)n1` [Example 57g, 1-[4-[4-[1-(2,4-difluorophenyl)sulfonylcyclopro-pyl]-6-[(3S)-3-methylmorpholin-4-yl]pyrimidin-2-yl]phenyl]-3-[(1-hydroxycyclopropyl)methyl]urea], the concentration for half-maximal inhibition (IC50) was 58.5 nM.

Consider `CNC(=O)Nc1ccc(-c2nc(N3CCOC[C@@H]3C)cc(C3(S(=O)(=O)c4ccccc4F)CC3)n2)cc1` [Example 58, 1-[4-[4-[1-(2-Fluorophenyl)sulfonylcyclopropyl]-6-[(3S)-3-methylmorpholin-4-yl]pyrimidin-2-yl]phenyl]-3-methylurea], for which the IC50 is 1.15 nM.

Consider `C[C@H]1COCCN1c1cc(C2(S(=O)(=O)c3ccccc3F)CC2)nc(-c2ccc(NC(=O)NC3CC3)cc2)n1` [Example 58a, 3-cyclopropyl-1-[4-[4-[1-(2-fluorophenyl)sulfonylcyclopropyl]-6-[(3S)-3-methylmorpholin-4-yl]pyrimidin-2-yl]phenyl]urea], for which the half-inhibitory concentration (IC50) was found to be 3.39 nM.

In the case of `C[C@H]1COCCN1c1cc(C2(S(=O)(=O)c3ccccc3F)CC2)nc(-c2ccc(NC(=O)NCCO)cc2)n1` [Example 58b, 1-[4-[4-[1-(2-fluorophenyl)sulfonylcyclopropyl]-6-[(3S)-3-methylmorpholin-4-yl]pyrimidin-2-yl]phenyl]-3-(2-hydroxyethyl)urea], the IC50 was 2 nM.

For `C[C@H]1COCCN1c1cc(C2(S(=O)(=O)c3ccccc3F)CC2)nc(-c2ccc(NC(=O)NCCF)cc2)n1` [Example 58c, 3-(2-fluoroethyl)-1-[4-[4-[1-(2-fluorophenyl)sulfonylcyclopropyl]-6-[(3S)-3-methylmorpholin-4-yl]pyrimidin-2-yl]phenyl]urea], the IC50 was determined as 3.27 nM.

Take `C[C@H]1COCCN1c1cc(C2(S(=O)(=O)c3ccccc3F)CC2)nc(-c2ccc(NC(=O)NCC(F)F)cc2)n1` [Example 58d, 3-(2,2-difluoroethyl)-1-[4-[4-[1-(2-fluorophenyl)sulfonylcyclopropyl]-6-[(3S)-3-methylmorpholin-4-yl]pyrimidin-2-yl]phenyl]urea]: the IC50 stood at 2.93 nM.

In the case of `CCNC(=O)Nc1ccc(-c2nc(N3CCOC[C@@H]3C)cc(C3(S(=O)(=O)c4ccccc4F)CC3)n2)cc1` [Example 58e, 1-ethyl-3-[4-[4-[1-(2-fluorophenyl)sulfonylcyclopropyl]-6-[(3S)-3-methylmorpholin-4-yl]pyrimidin-2-yl]phenyl]urea], the IC50 is 2.56 nM.

`C[C@H]1COCCN1c1cc(C2(S(=O)(=O)c3ccccc3F)CC2)nc(-c2ccc(NC(=O)Nc3cnn(C)c3)cc2)n1` [Example 58f, 1-[4-[4-[1-(2-fluorophenyl)sulfonylcyclopropyl]-6-[(3S)-3-methylmorpholin-4-yl]pyrimidin-2-yl]phenyl]-3-(1-methylpyrazol-4-yl)urea]: the half-inhibitory concentration (IC50) turned out to be 2.67 nM.

In the case of `C[C@H]1COCCN1c1cc(C2(S(=O)(=O)c3ccccc3F)CC2)nc(-c2ccc(NC(=O)NCC3(O)CC3)cc2)n1` [Example 58g, 1-[4-[4-[1-(2-fluorophenyl)sulfonylcyclopropyl]-6-[(3S)-3-methylmorpholin-4-yl]pyrimidin-2-yl]phenyl]-3-[(1-hydroxycyclopropyl)methyl]urea], the 50% inhibitory concentration (IC50) was 10.2 nM.

As to `CNC(=O)Nc1ccc(-c2nc(N3CCOC[C@@H]3C)cc(C3(S(=O)(=O)c4c(C)noc4C)CC3)n2)cc1` [Example 59], the IC50 was determined as 8.82 nM.

On to `Cc1noc(C)c1S(=O)(=O)C1(c2cc(N3CCOC[C@@H]3C)nc(-c3ccc(NC(=O)NC4CC4)cc3)n2)CC1` [Example 59a, 3-cyclopropyl-1-[4-[4-[1-[(3,5-dimethyl-1,2-oxazol-4-yl)sulfonyl]cyclopropyl]-6-[(3S)-3-methylmorpholin-4-yl]pyrimidin-2-yl]phenyl]urea], for which the IC50 amounted to 22.2 nM.

With `Cc1noc(C)c1S(=O)(=O)C1(c2cc(N3CCOC[C@@H]3C)nc(-c3ccc(NC(=O)NCCO)cc3)n2)CC1` [Example 59b, 1-[4-[4-[1-[(3,5-dimethyl-1,2-oxazol-4-yl)sulfonyl]cyclopropyl]-6-[(3S)-3-methylmorpholin-4-yl]pyrimidin-2-yl]phenyl]-3-(2-hydroxyethyl)urea], the IC50 turned out to be 9.93 nM.

On to `Cc1noc(C)c1S(=O)(=O)C1(c2cc(N3CCOC[C@@H]3C)nc(-c3ccc(NC(=O)NCCF)cc3)n2)CC1` [Example 59c, 1-[4-[4-[1-[(3,5-dimethyl-1,2-oxazol-4-yl)sulfonyl]cyclopropyl]-6-[(3S)-3-methylmorpholin-4-yl]pyrimidin-2-yl]phenyl]-3-(2-fluoroethyl)urea], for which the IC50 was 22.6 nM.

In the case of `Cc1noc(C)c1S(=O)(=O)C1(c2cc(N3CCOC[C@@H]3C)nc(-c3ccc(NC(=O)NCC(F)F)cc3)n2)CC1` [Example 59d, 3-(2,2-difluoroethyl)-1-[4-[4-[1-[(3,5-dimethyl-1,2-oxazol-4-yl)sulfonyl]cyclopropyl]-6-[(3S)-3-methylmorpholin-4-yl]pyrimidin-2-yl]phenyl]urea], the half-maximal inhibitory concentration (IC50) was determined as 32 nM.

In the case of `Cc1noc(C)c1S(=O)(=O)C1(c2cc(N3CCOC[C@@H]3C)nc(-c3ccc(NC(=O)NCC4(O)CC4)cc3)n2)CC1` [Example 59e, 1-[4-[4-[1-[(3,5-dimethyl-1,2-oxazol-4-yl)sulfonyl]cyclopropyl]-6-[(3S)-3-methylmorpholin-4-yl]pyrimidin-2-yl]phenyl]-3-[(1-hydroxycyclopropyl)methyl]urea], the 50% inhibitory concentration (IC50) was found to be 293 nM.

`CCNC(=O)Nc1ccc(-c2nc(N3CCOC[C@@H]3C)cc(C3(S(=O)(=O)c4c(C)noc4C)CC3)n2)cc1` [Example 59f, 3-[4-[4-[1-[(3,5-dimethyl-1,2-oxazol-4-yl)sulfonyl]cyclopropyl]-6-[(3S)-3-methylmorpholin-4-yl]pyrimidin-2-yl]phenyl]-1-ethylurea]: the IC50 was found to be 49.1 nM.

Regarding `Cc1noc(C)c1S(=O)(=O)C1(c2cc(N3CCOC[C@@H]3C)nc(-c3ccc(NC(=O)Nc4cnn(C)c4)cc3)n2)CC1` [Example 59g, 1-[4-[4-[1-[(3,5-dimethyl-1,2-oxazol-4-yl)sulfonyl]cyclopropyl]-6-[(3S)-3-methylmorpholin-4-yl]pyrimidin-2-yl]phenyl]-3-(1-methylpyrazol-4-yl)urea], the IC50 is 101 nM.

As for `CNC(=O)Nc1ccc(-c2nc(N3CCOC[C@@H]3C)cc(C3(S(=O)(=O)c4cc(F)ccc4F)CC3)n2)cc1` [Example 60, 1-[4-[4-[1-(2,5-Difluorophenyl)sulfonylcyclopropyl]-6-[(3S)-3-methylmorpholin-4-yl]pyrimidin-2-yl]phenyl]-3-methylurea], the IC50 amounted to 12 nM.

For `C[C@H]1COCCN1c1cc(C2(S(=O)(=O)c3cc(F)ccc3F)CC2)nc(-c2ccc(NC(=O)NC3CC3)cc2)n1` [Example 60a, 3-cyclopropyl-1-[4-[4-[1-(2,5-difluorophenyl)sulfonylcyclopropyl]-6-[(3S)-3-methylmorpholin-4-yl]pyrimidin-2-yl]phenyl]urea], the IC50 turned out to be 19.1 nM.

Turning to `C[C@H]1COCCN1c1cc(C2(S(=O)(=O)c3cc(F)ccc3F)CC2)nc(-c2ccc(NC(=O)NCCO)cc2)n1` [Example 60b, 1-[4-[4-[1-(2,5-difluorophenyl)sulfonylcyclopropyl]-6-[(3S)-3-methylmorpholin-4-yl]pyrimidin-2-yl]phenyl]-3-(2-hydroxyethyl)urea], the IC50 was found to be 8.62 nM.

On to `C[C@H]1COCCN1c1cc(C2(S(=O)(=O)c3cc(F)ccc3F)CC2)nc(-c2ccc(NC(=O)NCCF)cc2)n1` [Example 60c, 1-[4-[4-[1-(2,5-difluorophenyl)sulfonylcyclopropyl]-6-[(3S)-3-methylmorpholin-4-yl]pyrimidin-2-yl]phenyl]-3-(2-fluoroethyl)urea], for which the half-maximal inhibitory concentration (IC50) turned out to be 6.95 nM.

Take `C[C@H]1COCCN1c1cc(C2(S(=O)(=O)c3cc(F)ccc3F)CC2)nc(-c2ccc(NC(=O)NCC(F)F)cc2)n1` [Example 60d, 3-(2,2-difluoroethyl)-1-[4-[4-[1-(2,5-difluorophenyl)sulfonylcyclopropyl]-6-[(3S)-3-methylmorpholin-4-yl]pyrimidin-2-yl]phenyl]urea]: the IC50 is 18.3 nM.

Take `CCNC(=O)Nc1ccc(-c2nc(N3CCOC[C@@H]3C)cc(C3(S(=O)(=O)c4cc(F)ccc4F)CC3)n2)cc1` [Example 60e, 3-[4-[4-[1-(2,5-difluorophenyl)sulfonylcyclopropyl]-6-[(3S)-3-methylmorpholin-4-yl]pyrimidin-2-yl]phenyl]-1-ethylurea]: the half-maximal inhibitory concentration (IC50) was determined as 11.6 nM.

`C[C@H]1COCCN1c1cc(C2(S(=O)(=O)c3cc(F)ccc3F)CC2)nc(-c2ccc(NC(=O)Nc3cnn(C)c3)cc2)n1` [Example 60f, 1-[4-[4-[1-(2,5-difluorophenyl)sulfonylcyclopropyl]-6-[(3S)-3-methylmorpholin-4-yl]pyrimidin-2-yl]phenyl]-3-(1-methylpyrazol-4-yl)urea]: the IC50 came out at 17.3 nM.

`CNC(=O)Nc1ccc(-c2nc(N3CCOC[C@@H]3C)cc(C3(S(=O)(=O)c4cc(F)ccc4C)CC3)n2)cc1` [Example 61, 1-[4-[4-[1-(5-Fluoro-2-methylphenyl)sulfonylcyclopropyl]-6-[(3S)-3-methylmorpholin-4-yl]pyrimidin-2-yl]phenyl]-3-methylurea]: the IC50 is 26.9 nM.

`Cc1ccc(F)cc1S(=O)(=O)C1(c2cc(N3CCOC[C@@H]3C)nc(-c3ccc(NC(=O)NC4CC4)cc3)n2)CC1` [Example 61a, 3-cyclopropyl-1-[4-[4-[1-(5-fluoro-2-methylphenyl)sulfonylcyclopropyl]-6-[(3S)-3-methylmorphohn-4-yl]pyrimidin-2-yl]phenyl]urea]: the 50% inhibitory concentration (IC50) came to 32.6 nM.
